Experimental data reported in patent US7585859B2, “PDE4B inhibitors and uses therefor” (Plexxikon, Inc., priority 2004, dated 2009).
Read-outs that look alike come from different tables or passages of the source.

Legend:
[1] = molecular target: T1, full-length human PDE4B2 isozyme (Homo sapiens, UniProt Q07343); test: PDE4 IC50 determination by Scintillation Proximity Assay, PDE4B2; type: biochemical
T1 construct: The full-length human PDE4B2 isozyme; His6 (N); TEV cleavage site (N); made in house; host or cells: baculovirus infected insect cells (unpurified lysate)
Summary of the method: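 Unpurified His6-TEV-tagged full-length human PDE4B2 from baculovirus-infected insect cell lysate (2.5 μl of 50% glycerol stock/ml) hydrolysed [3H]cAMP in 50 mM Tris pH 7.5, 8.3 mM MgCl, 1.7 mM EGTA, 0.01% BSA for 30 min at 30°. Stopped with SPA beads in 18 mM ZnSO4; [3H]AMP scintillation counted, IC50 by non-linear regression.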

[2] = molecular target: T2, full-length human PDE4D5 isozyme (Homo sapiens, UniProt Q08499); test: PDE4 IC50 determination by Scintillation Proximity Assay, PDE4D5; type: biochemical
T2 construct: The full-length human PDE4D5 isozyme; His6 (N); TEV cleavage site (N); made in house; host or cells: baculovirus infected insect cells (unpurified lysate)
Summary of the method: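 Unpurified His6-tagged full-length human PDE4D5 from baculovirus-infected insect cell lysate, 0.083 μl glycerol stock/ml, hydrolysed [3H]cAMP in Tris pH 7.5/MgCl/EGTA buffer, 30 min at 30°. ZnSO4/SPA beads stop; [3H]AMP counted. Controls: DMSO and roflumilast; 11-point duplicate curves, nonlinear-regression IC50.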

[3] = Table 1B, Formula I compounds, read-out: IC50 PDE4B2
[4] = Table 1B, Formula I compounds, read-out: IC50 PDE4D5
[5] = second part of Table 2B (2-23 to 2-103), column 4, column is PDE4B2 in first part, read-out: IC 50 vs. indicated assay h TNFα

T2 sequence (Q08499 1-745 isoform Q08499-6): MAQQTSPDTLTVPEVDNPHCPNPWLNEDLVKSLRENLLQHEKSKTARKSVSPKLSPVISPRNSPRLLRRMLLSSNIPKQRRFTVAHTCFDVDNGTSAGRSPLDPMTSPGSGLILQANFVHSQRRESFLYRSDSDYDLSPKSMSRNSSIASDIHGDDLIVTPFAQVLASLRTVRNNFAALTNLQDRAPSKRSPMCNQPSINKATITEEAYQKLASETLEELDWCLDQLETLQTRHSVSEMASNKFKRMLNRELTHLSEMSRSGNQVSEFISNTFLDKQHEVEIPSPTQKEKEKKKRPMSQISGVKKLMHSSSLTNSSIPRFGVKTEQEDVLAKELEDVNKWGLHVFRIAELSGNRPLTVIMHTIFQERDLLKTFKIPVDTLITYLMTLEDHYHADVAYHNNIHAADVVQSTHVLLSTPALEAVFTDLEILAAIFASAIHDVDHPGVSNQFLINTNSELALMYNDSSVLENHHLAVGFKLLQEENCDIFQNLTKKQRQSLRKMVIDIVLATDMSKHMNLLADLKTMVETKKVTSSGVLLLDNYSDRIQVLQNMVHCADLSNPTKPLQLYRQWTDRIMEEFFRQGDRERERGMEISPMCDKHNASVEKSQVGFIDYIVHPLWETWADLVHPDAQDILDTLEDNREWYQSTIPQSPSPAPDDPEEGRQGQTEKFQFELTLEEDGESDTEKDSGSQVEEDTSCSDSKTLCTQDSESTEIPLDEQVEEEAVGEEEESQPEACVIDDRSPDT
T1 sequence (Q07343 1-564 isoform Q07343-2): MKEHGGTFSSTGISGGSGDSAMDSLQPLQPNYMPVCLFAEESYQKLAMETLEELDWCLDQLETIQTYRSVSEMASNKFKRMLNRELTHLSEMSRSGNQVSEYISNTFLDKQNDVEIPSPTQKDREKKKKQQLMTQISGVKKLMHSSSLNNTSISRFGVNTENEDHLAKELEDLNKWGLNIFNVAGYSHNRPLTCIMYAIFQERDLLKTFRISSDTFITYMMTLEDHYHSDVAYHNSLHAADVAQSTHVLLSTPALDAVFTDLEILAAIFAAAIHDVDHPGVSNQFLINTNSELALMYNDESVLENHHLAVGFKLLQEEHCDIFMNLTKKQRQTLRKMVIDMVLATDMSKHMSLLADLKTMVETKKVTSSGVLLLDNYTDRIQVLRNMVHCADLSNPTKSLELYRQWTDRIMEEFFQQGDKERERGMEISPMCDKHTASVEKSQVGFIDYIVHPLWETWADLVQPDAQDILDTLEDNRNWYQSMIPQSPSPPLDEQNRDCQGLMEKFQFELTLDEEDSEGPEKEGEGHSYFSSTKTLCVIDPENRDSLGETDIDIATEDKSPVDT

Compound | IC50 [1, 3] | IC50 [2, 4] | also measured
N#Cc1c(Nc2ccccc2)sc(C(=O)C2CC2)c1N [Compound 1-28, 4-Amino-5-cyclopropanecarbonyl-2-phenylamino-thiophene-3-carbonitrile] | < 10 µM | < 10 µM | –
COc1ccc(C(=O)c2sc(Nc3ccccc3)c(C#N)c2N)cc1 [Compound 1-31] | < 10 µM | < 10 µM | –
CCOC(=O)c1c(NC2CCCC2)sc(C(=O)c2ccc(OC)cc2)c1N [Compound 1-191, 4-Amino-2-cyclopentylamino-5-(4-methoxy-benzoyl)-thiophene-3-carboxylic acid ethyl ester] | < 10 µM | < 10 µM | –
N#Cc1c(Nc2ccccc2)sc(C(=O)c2cc(-c3ccccc3)no2)c1N [Compound 1-192, 4-Amino-2-phenylamino-5-(3-phenyl-isoxazole-5-carbonyl)-thiophene-3-carbonitrile] | < 10 µM | < 10 µM | –
CC(C)Nc1sc(C(=O)c2cc(-c3ccccc3)no2)c(N)c1C#N [Compound 1-205, 4-Amino-2-isopropylamino-5-(3-phenyl-isoxazole-5-carbonyl)-thiophene-3-carbonitrile] | > 10 µM | – | –
CC(C)Nc1sc(C(=O)c2cc(-c3ccc(Cl)cc3)no2)c(N)c1C#N [Compound 1-212, 4-Amino-5-[3-(4-chloro-phenyl)-isoxazole-5-carbonyl]-2-isopropylamino-thiophene-3-carbonitrile] | < 10 µM | > 10 µM | –
CC(C)CNc1sc(C(=O)c2cc(-c3ccccc3)no2)c(N)c1C(N)=O [Compound 1-236, 4-Amino-2-isobutylamino-5-(3-phenyl-isoxazole-5-carbonyl)-thiophene-3-carboxylic acid amide] | < 10 µM | < 10 µM | –
NC(=O)c1c(NC2CCCC2)sc(C(=O)c2cc(-c3ccccc3)no2)c1N [Compound 1-251, 4-Amino-2-cyclopentylamino-5-(3-phenyl-isoxazole-5-carbonyl)-thiophene-3-carboxylic acid amide] | < 10 µM | < 10 µM | –
Nc1nc(Nc2ccccc2F)sc1C(=O)c1cc(-c2ccccc2)no1 [Compound 2-6, [4-Amino-2-(2-fluoro-phenylamino)-thiazol-5-yl]-(3-phenyl-isoxazol-5-yl)-methanone] | – | – | IC50 ([1]; first part of Table 2B (2-1 to 2-22), read-out: IC 50 vs. indicated assay PDE4B2): < 10 µM; IC50 ([2]; first part of Table 2B (2-1 to 2-22), read-out: IC 50 vs. indicated assay PDE4D5): < 10 µM
Nc1nc(Nc2ccc(Cl)cc2)sc1C(=O)c1cccc(C(F)(F)F)c1 [Compound 2-23, [4-Amino-2-(4-chloro-phenylamino)-thiazol-5-yl]-(3-trifluoromethyl-phenyl)-methanone] | – | – | IC50 [1, 5]: < 10 µM
Nc1nc(NC2CCCC2)sc1C(=O)c1cccc(Cl)c1 [Compound 2-80, (4-Amino-2-cyclopentylamino-thiazol-5-yl)-(3-chloro-phenyl)-methanone] | – | – | IC50 [1, 5]: < 10 µM
